Source: patent publication EP0612321B1, “PYRIDO PYRIDAZINONE AND PYRIDAZINTHIONE COMPOUNDS WITH PDE IV INHIBITING ACTIVITY” (SYNTEX (U.S.A.) INC., priority 1991, dated 1993)

Columns and labels:
Human Lymphocyte PDE IV = experiment: Human Lymphocyte cAMP Phosphodiesterase Assay (inhibition of PDE IV); assay type: biochemical; conditions: Inhibition of Human Lymphocyte PDE IV (human B cell line 43D supernatant)
Experimental: Human B cell line (43D) was cultured at 37°C in 7% CO2 in RPMI 1640 with L-glutamine and 10% Nu-Serum. Prior to the assay ∼1.5x10^8 cells were centrifuged at 1000 rpm for 10 minutes in a table top clinical centrifuge. The pellet was resuspended in 2-3 ml of 45 mM Tris-HCl buffer, pH 7.4. The suspension was homogenized and centrifuged at 12,000 x g 4°C for 10 minutes. The supernatant was diluted to 28 ml with Tris-HCl buffer and used directly in the assay or stored at -20°C. The final concentration of DMSO in the PDE incubation medium was 1%. Nitraquazone was included in each assay (10 and 100µM) as a reference standard.
The phosphodiesterase incubation medium contained 10 mM Tris-HCl buffer, pH 7.7, 10 mM MgSO4, 0.1-1µM […] (0.2 µCi) in a total volume of 1.0 ml. Following addition of the enzyme, the contents were mixed and incubated for 10 min at 30°C. The reaction was terminated by immersing the tubes in a boiling-water bath for 90 sec. After the tubes were cooled in an ice-water bath, 0.1 ml (100µg) of 5'-nucleotidase from snake venom (Crotalus atrox, Sigma V-7000) was added to each tube. The contents were mixed and incubated for 30 min at 30°C. The nucleotidase reaction was terminated by immersing the tubes in a boiling water bath for 60 sec. […]

mice = experiment: Toxicology, 2 weeks dosing in mice; assay type: in vivo; conditions: 3 to 25 mg/kg/day
[1] = system: Arachidonic Acid-Induced Ear Edema (AAEE); experiment: Arachidonic Acid-Induced Ear Edema (AAEE) in the mouse, anti-inflammatory activity; assay type: in vivo, Female Charles River ICR mice; conditions: 1 h, ear plug weight one hour after arachidonic acid challenge
Experimental: This procedure is a modification of a procedure described by Young et al., J. Invest. Derm., 82:367-371 (1984).
Female Charles River ICR mice 23-27 grams are administered 0.2 ml of test material. The mice are later challenged with 20 µl of arachidonic acid applied topically to the ear. One hour after challenge, the weight of an 8 mm disc is determined. The mean increase in ear plug weight is calculated. Materials with anti-inflammatory activity inhibit the increase in ear plug weight.

[2] = system: plaque-forming cells (PFC); experiment: Hemolytic Plaque Forming Cell (PFC) Assay, immunosuppressive activity; assay type: in vivo, C3H female mice; conditions: Mus musculus, 96 h; oral dosage form; mice sensitized with SRBC; spleens taken four days after SRBC inoculation; read-out: ED50 (Immune PFC)
Text: This procedure is a modification of "The agar plaque technique for recognizing antibody producing cells," a procedure initially described by Jerne, et al. [Cell-bound Antibodies, Amos and Kaprowski editors (Wistar Institute Press, Philadelphia, 1963) p. 109].
Groups of 5-6 adult C3H female mice were sensitized with 1.25 x 10^8 sheep red blood cells (SRBC) and simultaneously treated with an oral dosage form of the test material in an aqueous vehicle. Animals in a control group receive the same volume of vehicle. Four days after SRBC inoculation, spleens are dispersed in glass homogenizers. The number of nucleated cells (WBC) is determined and the spleen cell suspension is mixed with SRBC, guinea pig complement and agar solution at 0.5% concentration. Aliquots of the above mixture (0.1 ml) are dropped on four separate quadrants of a Petri dish and are covered with cover slips. After two hours incubation at 37°C, areas of hemolysis around plaque-forming cells (PFC) are counted with a dissecting microscope. Total WBC/spleen, PFC/spleen and PFC/10^6 WBC (PPM) are calculated for each mouse spleen. Geometric means of each treatment group are then compared with the vehicle-treated control group.

Human PBL = experiment: Mitogenic response of human peripheral blood lymphocytes to concanavalin A (3H-thymidine uptake); assay type: cell-based; conditions: Lymphocyte, concanavalin A 2 µg/ml, 48 hours, read-out: % Suppression
Experimental: This procedure is a modification of a procedure initially described by Greaves, et al. ["Activation of human T and B lymphocytes by polyclonal mitogens," Nature, 248, 698-701 (1974)].
Human mononuclear cells (PBL) are separated from heparinized whole blood by density gradient centrifugation in Ficoll-Paque (Pharmacia). After washing, 5 x 10^4 cells/well are cultured in microtiter plates with minimal essential media supplemented with 1% human serum, gentamicin, sodium bicarbonate, 2-mercaptoethanol, glutamine, non-essential amino acids, and sodium pyruvate. The mitogen concanavalin A (Sigma) is used at a concentration of 2 µg/ml. Test materials are tested at concentrations between 10^-4 and 10^-10 M, by addition to the culture at time 0. Cultures are set up in quadruplicate and incubated at 37°C in a humidified atmosphere with 5% CO2 for 48 hours. A pulse of 1.0 µCi/well of ^3H-thymidine is added for the last 4 hours. Cells are collected on glass fiber filters with an automatic harvester and radioactivity is measured by standard scintillation procedures. The 50% inhibitory concentration ("IC50") for mitogenic stimulation is determined graphically. The compounds of the present invention show immunosuppressive activity when tested by this method.
The % suppression represents test well counts minus background (wells with no concanavalin A) divided by control well counts (wells with no compound) minus background times 100.

| Structure (SMILES) | IC50 (Human Lymphocyte PDE IV) [nM] | CONCLUSION (mortality) (mice) | ED50 [1] [mg/kg] | ED50 [2] [mg/kg] | inhibition at 0.1 µM (Human PBL) [%] | inhibition at 1 µM (Human PBL) [%] | inhibition at 10 µM (Human PBL) [%] | inhibition at 100 µM (Human PBL) [%] |
| --- | --- | --- | --- | --- | --- | --- | --- | --- |
| O=c1c2cccnc2c(-c2cccc([N+](=O)[O-])c2)nn1Cc1ccncc1 [Compound I, 6-(4-pyridylmethyl)-8-(3-nitrophenyl)pyrido[2,3-d]pyridazin-5-one] | 0.23 | no mortality occurred at any of the dose levels tested. | 0.003 | 1 | 83 | 80 | 85 | 100 |
| O=c1c2cccnc2c(-c2cccc(Cl)c2)nn1Cc1ccncc1 [Compound II, 6-(4-pyridylmethyl)-8-(3-chlorophenyl)pyrido[2,3-d]pyridazin-5-one] | 1 | no mortality occurred at any of the dose levels tested. | 0.009 | 3 | 74 | 83 | 87 | 100 |
